In patent US20070232698A1, “Slimming Skin External Preparation and Cosmetic Containing the Same” (priority 2004, published 2007):
Where a name gives a salt, the structure may show the parent alone. Read-outs that look alike come from different tables or passages of the source.

Key:
Mouse 3T3-F442A cells = assay: Triglyceride accumulation in adipocytes with base acylcarnitine plus test substance (oil red staining); type: cell-based; details: 4 days, control = base alone; for accumulated triglyceride amount relative to the control (100%), Base Hexadecanoyl-L-carnitine hydrochloride: base hexadecanoyl-L-carnitine hydrochloride plus 50 μM test substance (ginkgo biloba extract 30 μg/ml; garcinia extract as hydroxycitric acid); for accumulated triglyceride amount relative to the control (100%), Base Octadecanoyl-L-carnitine hydrochloride: base octadecanoyl-L-carnitine hydrochloride plus 50 μM test substance (ginkgo biloba extract 30 μg/ml; garcinia extract as hydroxycitric acid)
Experimental: The incubation was continued for another 4 days. The control was incubated using a culture medium that contained the base alone (no test substances). After the 4-days incubation, the cells were washed three times with Dulbecco's PBS (−). The triglyceride amount accumulated in the cells was quantitatively determined by oil red staining. […] Mouse 3T3-F442A cells were incubated as described in Example 10, and differentiation into adipocytes was observed. […] The incubation was continued for another 4 days. The control was incubated using a culture medium that contained the base alone (no test substances). After the 4-days incubation, the cells were washed three times with Dulbecco's PBS (−). The triglyceride amount accumulated in the cells was quantitatively determined by oil red staining.

[1] = tested on: skin together with subcutaneous fat tissues; assay: Subcutaneous fat breakdown test (rat abdominal skin with subcutaneous fat in Franz diffusion cell); details: lower cell PBS (−), 37° C., average of three measurements, control (none) 20
Experimental: A male Wister rat, 10 weeks old, was shaved on the abdomen, and the skin was removed together with subcutaneous fat tissues and was placed in a Franz diffusion cell. An upper cell on the skin surface was filled with a buffer solution containing the Example 1 test substance, and a lower cell was filled with Dulbecco's PBS (−). The diffusion cell was held at 37° C. and was allowed to stand for 8 or 16 hours. After the lapse of each of the standing times, PBS (−) was withdrawn from the lower cell. The content of free glycerol resulting from the fat breakdown was measured with use of Glycerol Test E Wako. The results are averages of three measurements.
The free glycerol contents were measured in the same manner as in Example 3, except that the two carnitine and carnitine derivative 1) and 6) used in Example 4 were tested. The results are averages of three measurements.
The free glycerol contents were measured in the same manner as in Example 3, except that the three carnitine and carnitine derivatives 1), 7) and 8) used in Example 7 were tested. The results are averages of three measurements.

Mouse 3T3 adipocytes = assay: Measurement of fat metabolic activity for mouse 3T3 adipocytes (free glycerol in culture medium); type: cell-based; details: 250 μM test substance, medium recovered after 24 hours; control (none) = 100
Experimental: The five carnitine and carnitine derivatives 1) to 5) used in Example 1 were tested. The fat metabolic activity was measured and compared by quantitative determination of glycerol in the culture medium based on the fact that metabolism of the fat accumulated in adipocytes releases glycerol and free fatty acid to the culture medium.
Mouse 3T3 cells as the preadipocytes were disseminated on a 10 cm-diameter dish such that 1×10^4 cells were on the dish. […] Thereafter, the culture medium was replaced with a 10% FCS-containing DMEM culture medium that contained […] of dexamethasone, 0.5 mM of isobutylmethylxanthine and 10 μg/ml of insulin, and incubation was continued for another 2 days. Subsequently, the culture medium was replaced again with a 10% FCS-containing ordinary DMEM culture medium, and incubation was performed for another week, resulting in differentiation of the preadipocytes into adipocytes. Next, the culture medium was replaced with an ordinary culture medium that contained 250 μM of the carnitine or carnitine derivative of the five substances 1) to 5) used in Example 1, and the culture medium was recovered after 24 hours. The cells were washed with Dulbecco's PBS (−) and were recovered. Cells incubated in the absence of the test substances were used as the control. The glycerol content in the culture medium was quantitatively determined using Glycerol Test E Wako (Wako Pure Chemical Industries, Ltd.).
The fat metabolic activity for mouse 3T3 adipocytes was determined based on the free glycerol content in the same manner as in Example 2, except that the two carnitine and carnitine derivative 1) and 6) used in Example 4 were tested.
The fat metabolic activity for mouse 3T3 adipocytes was determined based on the free glycerol content in the same manner as in Example 2, except that the three carnitine and carnitine derivatives 1), 7) and 8) used in Example 7 were tested.

[2] = tested on: human skin tissue three dimensional model (TESTSKIN LSD-d)
Experimental: (§1) The test substances were each dissolved in Dulbecco's PBS (−) to give a 1% by mass solution of the test substance. The test substance solutions were placed, each 50 μL, to a tissue surface of human skin tissue three dimensional model (TESTSKIN™ LSD-d, available from TOYOBO CO., LTD.), and were incubated at 37° C. in a 5% CO2 atmosphere for 2 hours. Thereafter the test substance solutions were aspirated out, and the skin models were further incubated at 37° C. in a 5% CO2 atmosphere for 2, 6 or 12 hours. The skin models were sampled after the lapse of each of the incubation times. The skin models sampled at the incubation times were washed with Dulbecco's PBS (−), and the tissue surfaces on which the test substances had been placed were punched out with a punch 6 mm in diameter. The skin models were then homogenated in a HEPES buffer solution (pH: 7.2), and were quantitatively analyzed using a high performance liquid chromatography to determine the carnitine content in the skin model.
(§2) From the analysis results, the carnitine contents in the skin models (unit: nmol/mg skin protein) were obtained for the test substances at each of the incubation times.

[3] = tested on: human skin tissue three dimensional model (TESTSKIN LSD-d); assay: Comparison of percutaneous absorption properties: carnitine content in skin model; details: 1% by mass solution, 50 μL on tissue surface for 2 hours; for carnitine content in the skin model, After 2-hour incubation: then 2-hour incubation at 37° C.; for carnitine content in the skin model, After 6-hour incubation: then 6-hour incubation at 37° C.; for carnitine content in the skin model, After 12-hour incubation: then 12-hour incubation at 37° C.
Experimental: as §1, §2

CCCCCCCCCCCCCCCC(=O)O [Palmitic acid]
accumulated triglyceride amount relative to the control (100%), Base Hexadecanoyl-L-carnitine hydrochloride (Mouse 3T3-F442A cells): 102% | accumulated triglyceride amount relative to the control (100%), Base Octadecanoyl-L-carnitine hydrochloride (Mouse 3T3-F442A cells): 100%

Calcium hydroxycitrate
accumulated triglyceride amount relative to the control (100%), Base Hexadecanoyl-L-carnitine hydrochloride (Mouse 3T3-F442A cells): 89% | accumulated triglyceride amount relative to the control (100%), Base Octadecanoyl-L-carnitine hydrochloride (Mouse 3T3-F442A cells): 88%

Cc1c(C)c2c(c(C)c1OC(=O)CN(C)C)CCC(C)(CCCC(C)CCCC(C)CCCC(C)C)O2.Cl (racemic) [dl-α-Tocopherol-N,N-dimethylglycine ester hydrochloride]
accumulated triglyceride amount relative to the control (100%), Base Hexadecanoyl-L-carnitine hydrochloride (Mouse 3T3-F442A cells): 98% | accumulated triglyceride amount relative to the control (100%), Base Octadecanoyl-L-carnitine hydrochloride (Mouse 3T3-F442A cells): 99%

O=C1O[C@H]([C@@H](O)CO)C(O)=C1O[C@H]1O[C@H](CO)[C@@H](O)[C@H](O)[C@H]1O [Ascorbic acid-2-glucoside]
accumulated triglyceride amount relative to the control (100%), Base Hexadecanoyl-L-carnitine hydrochloride (Mouse 3T3-F442A cells): 99% | accumulated triglyceride amount relative to the control (100%), Base Octadecanoyl-L-carnitine hydrochloride (Mouse 3T3-F442A cells): 102%

CC(C)Cn1c(=O)n(C)c(=O)c2[nH]cnc21 [3-Isobutyl-1-methylxanthine]
accumulated triglyceride amount relative to the control (100%), Base Hexadecanoyl-L-carnitine hydrochloride (Mouse 3T3-F442A cells): 50% | accumulated triglyceride amount relative to the control (100%), Base Octadecanoyl-L-carnitine hydrochloride (Mouse 3T3-F442A cells): 57%

O=C1O[C@H]([C@@H](O)CO)C(O)=C1OP(=O)([O-])[O-].[Mg+2] [Ascorbic acid-2-phosphate magnesium salt]
accumulated triglyceride amount relative to the control (100%), Base Hexadecanoyl-L-carnitine hydrochloride (Mouse 3T3-F442A cells): 98% | accumulated triglyceride amount relative to the control (100%), Base Octadecanoyl-L-carnitine hydrochloride (Mouse 3T3-F442A cells): 97%

Cc1ccc(N(CC2=NCCN2)c2cccc(O)c2)cc1 [Phentolamine hydrochloride]
accumulated triglyceride amount relative to the control (100%), Base Hexadecanoyl-L-carnitine hydrochloride (Mouse 3T3-F442A cells): 68% | accumulated triglyceride amount relative to the control (100%), Base Octadecanoyl-L-carnitine hydrochloride (Mouse 3T3-F442A cells): 65%

Cn1c(=O)c2[nH]cnc2n(C)c1=O [Theophylline]
accumulated triglyceride amount relative to the control (100%), Base Hexadecanoyl-L-carnitine hydrochloride (Mouse 3T3-F442A cells): 62% | accumulated triglyceride amount relative to the control (100%), Base Octadecanoyl-L-carnitine hydrochloride (Mouse 3T3-F442A cells): 58%

CCCCCC(=O)O[C@H](CC(=O)O)C[N+](C)(C)C.[Cl-] [Test substance 2), Hexanoyl-L-carnitine hydrochloride]
Free glycerol, After 8 hours [1]: 116 µmol/mL | Free glycerol, After 16 hours [1]: 138 µmol/mL | Free glycerol content (% relative to the control) (Mouse 3T3 adipocytes): 155 % relative to the control | carnitine content in the skin model, After 2-hour incubation [2]: 7 nmol/mg skin protein | carnitine content in the skin model, After 6-hour incubation [2]: 14 nmol/mg skin protein | carnitine content in the skin model, After 12-hour incubation [2]: 21 nmol/mg skin protein

CC(C)NCC(O)c1ccc(O)c(O)c1 (centres unmarked) [Isoproterenol hydrochloride]
accumulated triglyceride amount relative to the control (100%), Base Hexadecanoyl-L-carnitine hydrochloride (Mouse 3T3-F442A cells): 60% | accumulated triglyceride amount relative to the control (100%), Base Octadecanoyl-L-carnitine hydrochloride (Mouse 3T3-F442A cells): 64%

CCCCCCCCCCCCCC(=O)O [Myristic acid]
accumulated triglyceride amount relative to the control (100%), Base Hexadecanoyl-L-carnitine hydrochloride (Mouse 3T3-F442A cells): 99% | accumulated triglyceride amount relative to the control (100%), Base Octadecanoyl-L-carnitine hydrochloride (Mouse 3T3-F442A cells): 98%

CCCCCCCCCCCCCCCC(=O)O[C@H](CC(=O)OC)C[N+](C)(C)C.[Cl-] [Test substance 7), Hexadecanoyl-L-carnitine methyl ester hydrochloride]
carnitine content in the skin model, After 2-hour incubation [3]: 2 nmol/mg skin protein | carnitine content in the skin model, After 6-hour incubation [3]: 9 nmol/mg skin protein | carnitine content in the skin model, After 12-hour incubation [3]: 19 nmol/mg skin protein | Free glycerol, After 8 hours [1]: 68 µmol/mL | Free glycerol, After 16 hours [1]: 145 µmol/mL | Free glycerol content (% relative to the control) (Mouse 3T3 adipocytes): 143 % relative to the control

CCCCCCCCCCCCCCCCOC(=O)C[C@H](C[N+](C)(C)C)OC(=O)CCCCCCCCCCCCCCC.[Cl-] [Test substance 8), Hexadecanoyl-L-carnitine hexadecyl ester hydrochloride]
carnitine content in the skin model, After 2-hour incubation [3]: 2 nmol/mg skin protein | carnitine content in the skin model, After 6-hour incubation [3]: 8 nmol/mg skin protein | carnitine content in the skin model, After 12-hour incubation [3]: 21 nmol/mg skin protein | Free glycerol, After 8 hours [1]: 75 µmol/mL | Free glycerol, After 16 hours [1]: 150 µmol/mL | Free glycerol content (% relative to the control) (Mouse 3T3 adipocytes): 148 % relative to the control

CCCCCCCCCCCCCCCC(=O)O[C@H](CC(=O)O)C[N+](C)(C)C.[Cl-] [Test substance 4), Hexadecanoyl-L-carnitine hydrochloride]
Free glycerol, After 8 hours [1]: 125 µmol/mL | Free glycerol, After 16 hours [1]: 170 µmol/mL | Free glycerol content (% relative to the control) (Mouse 3T3 adipocytes): 180 % relative to the control | carnitine content in the skin model, After 2-hour incubation [2]: 6 nmol/mg skin protein | carnitine content in the skin model, After 6-hour incubation [2]: 10 nmol/mg skin protein | carnitine content in the skin model, After 12-hour incubation [2]: 23 nmol/mg skin protein

CCCCCCCCCCCCCCCC(=O)OC(CC(=O)O)(C(=O)O)C(O)C(=O)O (centres unmarked) [Hydroxycitric acid-2-palmitate]
accumulated triglyceride amount relative to the control (100%), Base Hexadecanoyl-L-carnitine hydrochloride (Mouse 3T3-F442A cells): 70% | accumulated triglyceride amount relative to the control (100%), Base Octadecanoyl-L-carnitine hydrochloride (Mouse 3T3-F442A cells): 72%

OCC(O)CO [Glycerol]
accumulated triglyceride amount relative to the control (100%), Base Hexadecanoyl-L-carnitine hydrochloride (Mouse 3T3-F442A cells): 118% | accumulated triglyceride amount relative to the control (100%), Base Octadecanoyl-L-carnitine hydrochloride (Mouse 3T3-F442A cells): 113%

CCCCCCCCCCCCCCCCCC(=O)O [Stearic acid]
accumulated triglyceride amount relative to the control (100%), Base Hexadecanoyl-L-carnitine hydrochloride (Mouse 3T3-F442A cells): 101% | accumulated triglyceride amount relative to the control (100%), Base Octadecanoyl-L-carnitine hydrochloride (Mouse 3T3-F442A cells): 99%

C[N+](C)(C)C[C@H](O)CC(=O)[O-] [Test substance 1), L-Carnitine, reference compound]
carnitine content in the skin model, After 2-hour incubation [3]: 12 nmol/mg skin protein | carnitine content in the skin model, After 6-hour incubation [3]: 12 nmol/mg skin protein | carnitine content in the skin model, After 12-hour incubation [3]: 11 nmol/mg skin protein | Free glycerol, After 8 hours [1]: 120 µmol/mL | Free glycerol, After 16 hours [1]: 125 µmol/mL | Free glycerol content (% relative to the control) (Mouse 3T3 adipocytes): 120 % relative to the control

Cc1c(C)c2c(c(C)c1OP(=O)([O-])[O-])CCC(C)(CCCC(C)CCCC(C)CCCC(C)C)O2.[Na+].[Na+] (racemic) [dl-α-Tocopherol phosphate sodium salt]
accumulated triglyceride amount relative to the control (100%), Base Hexadecanoyl-L-carnitine hydrochloride (Mouse 3T3-F442A cells): 100% | accumulated triglyceride amount relative to the control (100%), Base Octadecanoyl-L-carnitine hydrochloride (Mouse 3T3-F442A cells): 102%

CCCCCCCCCCCCCCCC(=O)OC[C@H](O)[C@H]1OC(=O)C(OP(=O)([O-])[O-])=C1[O-].[Na+].[Na+].[Na+] [Ascorbic acid-2-phosphoric acid-6-palmitate sodium salt]
accumulated triglyceride amount relative to the control (100%), Base Hexadecanoyl-L-carnitine hydrochloride (Mouse 3T3-F442A cells): 96% | accumulated triglyceride amount relative to the control (100%), Base Octadecanoyl-L-carnitine hydrochloride (Mouse 3T3-F442A cells): 96%

CCCCCCCCCCCCCCCCOC(=O)C[C@@H](O)C[N+](C)(C)C.[Cl-] [Test substance 6), L-Carnitine hexadecyl ester hydrochloride]
carnitine content in the skin model, After 2-hour incubation [3]: 5 nmol/mg skin protein | carnitine content in the skin model, After 6-hour incubation [3]: 11 nmol/mg skin protein | carnitine content in the skin model, After 12-hour incubation [3]: 26 nmol/mg skin protein | Free glycerol, After 8 hours [1]: 110 µmol/mL | Free glycerol, After 16 hours [1]: 116 µmol/mL | Free glycerol content (% relative to the control) (Mouse 3T3 adipocytes): 165 % relative to the control

C[N+](C)(C)C[C@H](O)CC(=O)[O-].Cl [L-carnitine hydrochloride]
accumulated triglyceride amount relative to the control (100%), Base Hexadecanoyl-L-carnitine hydrochloride (Mouse 3T3-F442A cells): 99% | accumulated triglyceride amount relative to the control (100%), Base Octadecanoyl-L-carnitine hydrochloride (Mouse 3T3-F442A cells): 102%
